The test system of one data set is Caco-2 monolayer. The experiment in a line: Caco-2 permeability assay. It counts as in vitro ADME. The conditions noted are these: Caco-2, apical to basolateral, 2 hours.
Data set [1] relates to primary human PBMCs. Briefly: PBMC toxicity. The following applies: 16 h.
Data set [2] is described as follows: Liver microsome stability, human. The conditions noted are these: liver microsomes.
The target of data set [3] is T1, human ENPP1 transfected into 293T cGAS ENPP1−/− cells (Homo sapiens, UniProt P22413).
T1 sequence (P22413 1-925): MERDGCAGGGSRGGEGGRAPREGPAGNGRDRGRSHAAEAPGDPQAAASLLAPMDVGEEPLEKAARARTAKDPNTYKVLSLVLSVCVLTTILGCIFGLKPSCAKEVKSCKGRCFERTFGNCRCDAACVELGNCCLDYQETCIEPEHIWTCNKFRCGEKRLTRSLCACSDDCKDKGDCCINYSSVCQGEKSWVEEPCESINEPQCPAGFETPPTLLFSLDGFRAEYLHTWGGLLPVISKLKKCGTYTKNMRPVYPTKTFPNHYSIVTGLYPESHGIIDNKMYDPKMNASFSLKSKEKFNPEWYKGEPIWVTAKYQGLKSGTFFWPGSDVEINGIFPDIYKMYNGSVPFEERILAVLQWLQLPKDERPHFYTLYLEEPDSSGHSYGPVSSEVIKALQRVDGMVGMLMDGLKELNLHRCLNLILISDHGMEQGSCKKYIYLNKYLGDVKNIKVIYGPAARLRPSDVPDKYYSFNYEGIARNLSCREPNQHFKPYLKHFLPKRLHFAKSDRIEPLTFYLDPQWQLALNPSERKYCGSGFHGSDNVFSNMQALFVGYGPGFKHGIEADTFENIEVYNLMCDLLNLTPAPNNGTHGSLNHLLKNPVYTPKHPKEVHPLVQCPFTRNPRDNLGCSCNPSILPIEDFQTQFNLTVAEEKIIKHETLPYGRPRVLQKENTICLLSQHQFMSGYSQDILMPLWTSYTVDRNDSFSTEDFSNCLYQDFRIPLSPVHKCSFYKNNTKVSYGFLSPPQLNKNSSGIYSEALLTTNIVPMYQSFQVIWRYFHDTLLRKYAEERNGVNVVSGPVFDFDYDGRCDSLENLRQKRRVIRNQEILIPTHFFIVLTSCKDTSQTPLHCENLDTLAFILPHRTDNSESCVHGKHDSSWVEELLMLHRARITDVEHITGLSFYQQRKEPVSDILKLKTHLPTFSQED
Briefly: cGAMP export assay in ENPP1-transfected cells. Format: cell-based.

A short description of data set [4]: parallel artificial membrane permeability assay. The following applies: PAMPA, compared to high and low permeability controls. Format: in vitro ADME.
The subject of data set [5] is cGAMP exporter(s) in 293T cGAS ENPP1−/− cells. Briefly: Intracellular and extracellular cGAMP in 293T cGAS ENPP1−/− cells. The following applies: 24 hours; STF-1084 10 μM; STF-1623 2 μM; QS1 in ENPP1 null cells.
The test system of data set [6] is primary human PBMCs. The following applies: 200 nM cGAMP electroporated, 16 h; 50 μM STF-1084; 2 μM STF-1623.
The test system of a further data set is epithelial cells MDCK. The experiment in a line: MDCK permeability assay. Format: in vitro ADME.
A short description of data set [7]: Pharmacokinetics of STF-1623 after subcutaneous injection. It counts as in vivo, mouse.
The target of another data set is T2, purified mouse ENPP1 (Mus musculus, UniProt P06802).
T2 sequence (P06802 85-906 limits assumed): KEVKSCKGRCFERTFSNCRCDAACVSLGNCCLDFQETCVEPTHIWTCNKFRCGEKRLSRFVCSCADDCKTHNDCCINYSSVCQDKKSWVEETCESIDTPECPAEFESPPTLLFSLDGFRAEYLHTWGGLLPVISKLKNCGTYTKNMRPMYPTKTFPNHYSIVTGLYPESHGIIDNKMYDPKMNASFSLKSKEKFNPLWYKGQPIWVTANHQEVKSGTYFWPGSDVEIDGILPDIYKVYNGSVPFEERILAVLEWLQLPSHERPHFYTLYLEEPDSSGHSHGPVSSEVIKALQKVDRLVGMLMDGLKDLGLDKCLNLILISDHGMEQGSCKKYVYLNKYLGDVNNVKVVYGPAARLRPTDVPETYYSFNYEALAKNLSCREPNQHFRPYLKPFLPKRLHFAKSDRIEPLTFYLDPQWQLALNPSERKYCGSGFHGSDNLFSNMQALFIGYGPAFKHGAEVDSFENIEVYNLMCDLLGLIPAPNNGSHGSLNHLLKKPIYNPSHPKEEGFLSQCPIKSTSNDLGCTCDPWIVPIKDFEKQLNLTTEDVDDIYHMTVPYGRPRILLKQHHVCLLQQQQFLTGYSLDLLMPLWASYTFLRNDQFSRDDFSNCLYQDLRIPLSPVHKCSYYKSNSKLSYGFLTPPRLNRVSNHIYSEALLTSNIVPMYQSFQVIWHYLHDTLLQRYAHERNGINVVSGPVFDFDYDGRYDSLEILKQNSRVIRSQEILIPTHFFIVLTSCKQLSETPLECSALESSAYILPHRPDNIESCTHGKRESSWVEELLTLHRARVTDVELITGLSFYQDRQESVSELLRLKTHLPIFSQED
Briefly: 32P-cGAMP degradation TLC assay. It counts as biochemical.

For the next data set, the system named is Panc02 tumors. The experiment in a line: Panc02 syngeneic subcutaneous pancreatic tumor model. It counts as in vivo, mouse. The conditions noted are these: subcutaneous pump, 50 mg/kg/day.
Data set [8] can be described thus: Liver microsome stability, mouse. The following applies: liver microsomes.
A further data set has as its system 4T1-luc cells. The experiment in a line: Extracellular cGAMP measurement in cancer cell lines. It counts as cell-based, mouse.
A further data set addresses ENPP2 (Homo sapiens, UniProt Q13822). Briefly: ENPP2 inhibition assay. Format: biochemical.
The target in data set [9] is T3, alkaline phosphatase (ALPL) (Homo sapiens, UniProt P05186).
T3 sequence (P05186 18-524): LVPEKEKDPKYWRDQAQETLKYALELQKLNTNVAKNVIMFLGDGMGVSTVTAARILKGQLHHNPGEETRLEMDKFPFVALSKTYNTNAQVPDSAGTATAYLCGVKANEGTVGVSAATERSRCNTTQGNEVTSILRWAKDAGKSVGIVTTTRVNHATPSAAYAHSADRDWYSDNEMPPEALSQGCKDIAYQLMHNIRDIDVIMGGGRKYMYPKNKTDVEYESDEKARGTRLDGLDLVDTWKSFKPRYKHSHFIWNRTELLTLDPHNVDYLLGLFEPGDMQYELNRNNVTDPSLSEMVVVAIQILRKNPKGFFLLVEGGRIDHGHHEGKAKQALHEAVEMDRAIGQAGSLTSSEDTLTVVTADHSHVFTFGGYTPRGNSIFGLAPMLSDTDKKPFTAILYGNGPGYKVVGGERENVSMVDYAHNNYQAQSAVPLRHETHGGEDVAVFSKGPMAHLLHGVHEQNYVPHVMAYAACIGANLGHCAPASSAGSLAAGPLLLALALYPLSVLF
The experiment in a line: ALPL inhibition assay. Format: biochemical.

Data set [10] can be described thus: Pharmacokinetics of STF-1084. The conditions noted are these: in vivo.
A further data set has as its system 4T1-luc tumors. The experiment in a line: Established orthotopic 4T1-luc tumor growth with IR and cGAMP. Format: in vivo, mouse.
For a further data set, the system named is CD14+ PBMCs. The experiment in a line: Stimulation of CD14+ PBMCs with extracellular cGAMP. The following applies: soluble extracellular cGAMP, 16 h. Format: cell-based, human.

Where a name gives a salt, the structure may show the parent alone. Some results are limits rather than exact numbers.

For the molecule `COc1cccc2c(N3CCC(CCP(=O)(O)O)CC3)ncnc12` [STF-1623, (2-(1-(8-methoxyquinazolin-4-yl)piperidin-4-yl)ethyl)phosphonic acid], the permeability category result (with Caco-2 monolayer; in [4]; with epithelial cells MDCK) was “cell impermeable” in each case. The “toxicity to PBMCs” value in the data set on primary human PBMCs [1] was “not toxic”. Moreover, the half-life in data set [2] and in data set [8] was more than 2.65 h in each case. In [3], this molecule gave an IC50 of 68 nM. The “effect on intracellular / extracellular cGAMP (cGAMP export)” value in data set [5] is “affected only extracellular cGAMP concentrations”. In the data set on primary human PBMCs [6], the “cytokine production (IFNB1, CXCL10 mRNA) after cGAMP electroporation” value is listed as “no effect on cytokine production”. The same molecule yielded a concentration at 24 h in [7] (mouse, plasma, sc, 300 mg/kg) of more than 100 nM. For the same molecule, the “pharmacokinetic profile (in words)” value in data set [7] (systemic dosing) is “improved pharmacokinetic profile compared to STF-1084”. Also, on purified mouse ENPP1, the affinity, expressed as Ki, was 16 nM. Moreover, the “tumor growth, combination with IR” value in the data set on Panc02 tumors (day 0 to 8, IR (20 Gy) on day 1) is reported as “synergized with IR to delay tumor growth”. Also, in the data set on Panc02 tumors (day 0 to 8, no IR), the “tumor growth, single agent” value is “delayed tumor growth as a single agent”.
Consider `COc1cc2ncnc(N3CCC(CCP(=O)(O)O)CC3)c2cc1OC` [STF-1084, dimethyl (2-(1-(6,7-dimethoxyquinazolin-4-yl)piperidin-4-yl)ethyl)phosphonic acid hydrogen bromide salt], for which the permeability category result (with Caco-2 monolayer; in data set [4]; with epithelial cells MDCK) was “impermeable” each time. In addition, in the data set with 4T1-luc cells (4T1-luc, 48 hours, serum-containing media, 50 μM STF-1084), the “extracellular cGAMP” value was 3,000,000 molecules/cell. In addition, the “toxicity to PBMCs” value with primary human PBMCs [1] (100 μM) is “non-toxic”. The figures for the inhibition constant Ki (on ENPP2; in [9]) were 5500 nM and more than 100000 nM, respectively. In addition, the half-life in [2] and in data set [8] was more than 2.65 h each time. Further, the “effect on intracellular / extracellular cGAMP (cGAMP export)” value in [5] is “no effect on intracellular cGAMP”. Further, the “pharmacokinetics (in words)” value in [10] is reported as “fast pharmacokinetics”. In the data set on 4T1-luc tumors (IR (20 Gy) + 10 μg cGAMP + 100 μL of 1 mM STF-1084 intratumoral on day 2, 4, 7), the tumor free survival was 1/10.
Take `Nc1nc2c(ncn2[C@@H]2O[C@@H]3COP(=O)(O)O[C@H]4[C@@H](O)[C@H](n5cnc6c(N)ncnc65)O[C@@H]4COP(=O)(O)O[C@@H]2[C@@H]3O)c(=O)[nH]1` [cGAMP, 2’3’-cyclic GMP-AMP]: the tumor free survival in the data set with 4T1-luc tumors (Enpp1−/− 4T1-luc tumors, IR (20 Gy) + three intratumoral injections of 10 μg cGAMP) was 3/11. Besides, the survival result with 4T1-luc tumors (WT 4T1-luc tumors, IR (20 Gy) + three intratumoral injections of 10 μg cGAMP) is on record as “no mice inoculated with WT tumors survived”. Moreover, the “cGAMP concentration to which CD14+ PBMCs respond by upregulating IFNB1” value in the data set on CD14+ PBMCs is listed as “submicromolar”.

B1: mENPP1: purified soluble recombinant mouse ENPP1, cGAMP hydrolase (protein, UniProt P06802 80-906, looked up)
extracellular domain: KPSCAKEVKSCKGRCFERTFSNCRCDAACVSLGNCCLDFQETCVEPTHIWTCNKFRCGEKRLSRFVCSCADDCKTHNDCCINYSSVCQDKKSWVEETCESIDTPECPAEFESPPTLLFSLDGFRAEYLHTWGGLLPVISKLKNCGTYTKNMRPMYPTKTFPNHYSIVTGLYPESHGIIDNKMYDPKMNASFSLKSKEKFNPLWYKGQPIWVTANHQEVKSGTYFWPGSDVEIDGILPDIYKVYNGSVPFEERILAVLEWLQLPSHERPHFYTLYLEEPDSSGHSHGPVSSEVIKALQKVDRLVGMLMDGLKDLGLDKCLNLILISDHGMEQGSCKKYVYLNKYLGDVNNVKVVYGPAARLRPTDVPETYYSFNYEALAKNLSCREPNQHFRPYLKPFLPKRLHFAKSDRIEPLTFYLDPQWQLALNPSERKYCGSGFHGSDNLFSNMQALFIGYGPAFKHGAEVDSFENIEVYNLMCDLLGLIPAPNNGSHGSLNHLLKKPIYNPSHPKEEGFLSQCPIKSTSNDLGCTCDPWIVPIKDFEKQLNLTTEDVDDIYHMTVPYGRPRILLKQHHVCLLQQQQFLTGYSLDLLMPLWASYTFLRNDQFSRDDFSNCLYQDLRIPLSPVHKCSYYKSNSKLSYGFLTPPRLNRVSNHIYSEALLTSNIVPMYQSFQVIWHYLHDTLLQRYAHERNGINVVSGPVFDFDYDGRYDSLEILKQNSRVIRSQEILIPTHFFIVLTSCKQLSETPLECSALESSAYILPHRPDNIESCTHGKRESSWVEELLTLHRARVTDVELITGLSFYQDRQESVSELLRLKTHLPIFSQED
modifications: extracellular domain
As for B1, the “extracellular cGAMP signal” value in the data set on 4T1-luc cells (4T1-luc conditioned media incubated with 10 nM recombinant mENPP1 overnight) is recorded as “abolished the cGAMP signal”.

These data come from publication PMC7990037 (Nature cancer, 2020).
